Results published in patent publication US10870925B2, “Arrays” (SENGENICS CORPORATION PTE LTD, priority 2001, dated 2020).
Each block holds one compound with its values, some of them ahead of it.

Legend:
[1] = molecular target: T1, cytochrome P450 3A4 (Homo sapiens, UniProt P08684); assay: BzRes oxidation and ketoconazole inhibition, cytochrome P450 3A4 microsomes in solution and encapsulated in agarose; assay type: biochemical; details: standard error in parentheses
T1 construct: host or cells: microsomes
T1 sequence (P08684 whole entry): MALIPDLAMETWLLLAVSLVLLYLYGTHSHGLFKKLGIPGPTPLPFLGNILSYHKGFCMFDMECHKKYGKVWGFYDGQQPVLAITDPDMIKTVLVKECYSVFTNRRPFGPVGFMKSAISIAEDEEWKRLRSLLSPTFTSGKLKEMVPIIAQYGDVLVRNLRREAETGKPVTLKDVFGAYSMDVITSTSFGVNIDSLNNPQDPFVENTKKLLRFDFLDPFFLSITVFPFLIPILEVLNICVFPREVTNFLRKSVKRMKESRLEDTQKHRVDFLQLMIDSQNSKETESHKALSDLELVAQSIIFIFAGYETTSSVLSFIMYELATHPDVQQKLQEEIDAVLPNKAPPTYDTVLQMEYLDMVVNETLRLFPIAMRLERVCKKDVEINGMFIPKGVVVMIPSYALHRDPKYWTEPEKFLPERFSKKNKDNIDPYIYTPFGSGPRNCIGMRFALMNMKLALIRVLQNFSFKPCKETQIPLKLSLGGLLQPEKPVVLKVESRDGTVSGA

[2] = molecular target: T2, 3A4*WT (Homo sapiens, UniProt P08684); assay: BzRes turnover and ketoconazole inhibition, cumene hydrogen peroxide activated purified P450 3A4 isoform; assay type: biochemical; details: standard error in parentheses
T2 construct: His-tag (concluded from Ni-NTA / Talon purification); biotinylated tag (BCCP; concluded from streptavidin detection); made in house; host or cells: E. coli XL-10 gold
T2 sequence (P08684 whole entry, canonical isoform): as the sequence (P08684 whole entry) above

[3] = molecular target: T3, 3A4*2 (Homo sapiens, UniProt P08684, S222P); assay: as above; assay type: biochemical; details: standard error in parentheses
T3 construct: His-tag (concluded from Ni-NTA / Talon purification); biotinylated tag (BCCP; concluded from streptavidin detection); made in house; host or cells: E. coli XL-10 gold
T3 sequence (P08684 whole entry S222P): as the sequence (P08684 whole entry) above, with S222P counted along it

[4] = molecular target: T4, 3A4*3 (Homo sapiens, UniProt P08684, M445T); assay: as above; assay type: biochemical; details: standard error in parentheses
T4 construct: His-tag (concluded from Ni-NTA / Talon purification); biotinylated tag (BCCP; concluded from streptavidin detection); made in house; host or cells: E. coli XL-10 gold
T4 sequence (P08684 whole entry M445T): as the sequence (P08684 whole entry) above, with M445T counted along it

[5] = molecular target: T5, 3A4*4 (Homo sapiens, UniProt P08684, I118V); assay: as above; assay type: biochemical; details: standard error in parentheses
T5 construct: His-tag (concluded from Ni-NTA / Talon purification); biotinylated tag (BCCP; concluded from streptavidin detection); made in house; host or cells: E. coli XL-10 gold
T5 sequence (P08684 whole entry I118V): as the sequence (P08684 whole entry) above, with I118V counted along it

[6] = molecular target: T6, 3A4*5 (Homo sapiens, UniProt P08684, P218R); assay: as above; assay type: biochemical; details: standard error in parentheses
T6 construct: His-tag (concluded from Ni-NTA / Talon purification); biotinylated tag (BCCP; concluded from streptavidin detection); made in house; host or cells: E. coli XL-10 gold
T6 sequence (P08684 whole entry P218R): as the sequence (P08684 whole entry) above, with P218R counted along it

[7] = molecular target: 3A4*15 (Homo sapiens, UniProt P08684, R162Q); assay: as above
3A4*15, sequence (P08684 whole entry R162Q): as the sequence (P08684 whole entry) above, with R162Q counted along it

[8] = tested on: GADD45 promoter element DNA; assay: Quantitative DNA binding on the p53 protein microarray (33P-labelled duplex DNA); details: 33P GADD45 duplex DNA; for DNA binding Bmax (% wild-type) / Kd: room temperature 30 min, confidence limits in parentheses; for GADD45 DNA binding, in words: p53 microarray
[9] = Gel encapsulated (agarose) microsomes
[10] = 200 μM cumene hydrogen peroxide
[11] = normalised for P450 concentration and scaled to wild-type

Compound: O=c1ccc2nc3ccc(OCc4ccccc4)cc3oc-2c1 [BzRes, resorufin benzyl ether]
BzRes Oxidation Vmax (% of soluble) [1, 9]: 50 (6) % of soluble
Km [1, 9]: 49 µM
BzRes Oxidation Vmax (% of soluble) ([1]; Soluble microsomes): 100 (6) % of soluble
Km ([1]; Soluble microsomes): 20 µM
Km [2, 10]: 104 µM
Vmax BzRes [2, 11]: 100 (34)
Km [3, 10]: 62 µM
Vmax BzRes [3, 11]: 65 (9)
Km [4, 10]: 54 µM
Vmax BzRes [4, 11]: 93 (24)
Km [5, 10]: 111 µM
Vmax BzRes [5, 11]: 69 (22)
Km [6, 10]: 101 µM
Vmax BzRes [6, 11]: 59 (16)
Vmax BzRes ([7]; normalised for P450 concentration and scaled to wild-type, standard error in parentheses): 111 (23)
Km ([7]; read-out: KM BzRes, 200 μM cumene hydrogen peroxide, standard error in parentheses): 89 µM

DNA binding Bmax (% wild-type) [8]: 73 (67-79) % wild-type
Kd [8]: 0.007 µM
GADD45 DNA binding, in words [8]: near wild-type affinity
Compound: G325V: p53 mutant protein, His- and biotin-tagged, E. coli expressed [Mutation G325V]

DNA binding Bmax (% wild-type) [8]: 88 (81-95) % wild-type
Kd [8]: 0.011 µM
GADD45 DNA binding, in words [8]: wild-type binding
Compound: R181C: p53 mutant protein, His- and biotin-tagged, E. coli expressed [Mutation R181C]

DNA binding Bmax (% wild-type) [8]: 48 (40-57) % wild-type
Kd [8]: 0.011 µM
GADD45 DNA binding, in words [8]: wild-type binding
Compound: R181H: p53 mutant protein, His- and biotin-tagged, E. coli expressed [Mutation R181H]

DNA binding Bmax (% wild-type) [8]: 54 (40-70) % wild-type
Kd [8]: 0.021 µM
Compound: R280K: p53 mutant protein, His- and biotin-tagged, E. coli expressed [Mutation R280K]

DNA binding Bmax (% wild-type) [8]: 121 (107-136) % wild-type
Kd [8]: 0.01 µM
Compound: S392A: p53 mutant protein, His- and biotin-tagged, E. coli expressed [Mutation S392A]
